Measured values published in patent publication US20110195116A1, “RATE MODULATED DELIVERY OF DRUGS FROM A COMPOSITE DELIVERY SYSTEM” (ADCOCK INGRAM HEALTHCARE PTY LIMITED, priority 2008, published 2011).
Structures can show the parent of a compound that is named as a salt. Where two headings read alike, the source gives them in different places.

What was measured:
[1] = cited from earlier work
[2] = dissolution study, USP paddle, simulated gastric fluid pH 1.2 without pepsin; format: physicochemical; details: cellulose, polyethylene oxide and alginate polymer formulations
Experimental: (§1) Dissolution studies were conducted using a USP rotating paddle method (Hanson Virtual Instruments SR8 Plus Dissolution Test Stations) at 50 rpm in phosphate buffer pH 6.8 (900 mL, 37° C.±0.5° C.) for each formulation employing an autosampler (Hanson Research Auto Plus Maximiser and AutoPlus™ MultiFill™). Samples of 1.6 mL were withdrawn over a period of 12 to 20 hours and analysed via HPLC. Release profiles in simulated gastric fluid pH 1.2 without pepsin over a period of four hours were determined to identify any site-specific release induced by the polymers. The dissolution studies were performed under the conditions described in Table 1.
The alginate and zinc gluconate addition was then included in a formulation where the HEC and HPC had been further reduced to 45.31 mg and 90.6 mg respectively (FIG. 16).
In order to establish the potential site-specific release potential of the polymeric dosage form, formulations consisting of cellulose, polyethylene oxide and alginate polymers were subjected to dissolution studies in simulated gastric fluid pH 1.2 without pepsin.

[3] = dissolution study, USP paddle, phosphate buffer pH 6.8; format: physicochemical
Experimental: Initial dissolution characteristics of the combined APIs paracetamol, tramadol hydrochloride and diclofenac potassium; individual and combined cellulose and ethylene oxide-based polymers were determined by producing experimental batches of tablets. These were produced on a Manesty Single Punch Type F3 machine by direct compression and wet granulation techniques into monolithic matrix and multi-layered systems, as shown in FIG. 1. In situ crosslinking of various alginate, pectin and eudragit polymers with salts such as zinc gluconate was also investigated for an influence on the release characteristics of the solid dosage system.
as §1

[4] = in vivo; cited from earlier work
[5] = dosage form with pectin, alginate and eudragit polymers crosslinked with metallic salts

## O=C(O)Cc1ccccc1Nc1c(Cl)cccc1Cl [Diclofenac]
[1]; at pH 6.8
  water solubility: 0.187%

## O=C(O)Cc1ccccc1Nc1c(Cl)cccc1Cl [diclofenac potassium]
[2]
  release in simulated gastric fluid: not released
[3]; cellulose and polyethylene oxide-based formulation compressed as layered dosage form
  release kinetics: zero-order
[3]; cellulose and polyethylene oxide-based formulation compressed as monolithic matrix
  release kinetics: first-order
[3]; [5]
  release kinetics: zero-order

## COc1cccc(C2(O)CCCCC2CN(C)C)c1 (stereo not drawn) [Tramadol]
[4]
  elimination half-life (t1/2): 6 h

## CC(=O)Nc1ccc(O)cc1 [Paracetamol]
[1]; at 20° C.
  water solubility: 1.4%
[3]; [5]
  release kinetics: first-order

## COc1cccc(C2(O)CCCCC2CN(C)C)c1 (stereo not drawn) [tramadol hydrochloride]
[3]; [5]
  release kinetics: first-order
